biological target: T1, human apelin receptor (Homo sapiens, UniProt P35414); experiment: Measurement of apelin receptor agonist activity (cell-based assay determining the amount of intracellular cAMP); conditions: CHO cells stably expressing the human apelin receptor, Forskolin 10 μM, 30 minutes, 100% efficacy = [Pyr1]-apelin-13 0.300 μM, concentration giving 50% efficacy
T1 construct: host or cells: CHO cells
T1 sequence (P35414 1-380): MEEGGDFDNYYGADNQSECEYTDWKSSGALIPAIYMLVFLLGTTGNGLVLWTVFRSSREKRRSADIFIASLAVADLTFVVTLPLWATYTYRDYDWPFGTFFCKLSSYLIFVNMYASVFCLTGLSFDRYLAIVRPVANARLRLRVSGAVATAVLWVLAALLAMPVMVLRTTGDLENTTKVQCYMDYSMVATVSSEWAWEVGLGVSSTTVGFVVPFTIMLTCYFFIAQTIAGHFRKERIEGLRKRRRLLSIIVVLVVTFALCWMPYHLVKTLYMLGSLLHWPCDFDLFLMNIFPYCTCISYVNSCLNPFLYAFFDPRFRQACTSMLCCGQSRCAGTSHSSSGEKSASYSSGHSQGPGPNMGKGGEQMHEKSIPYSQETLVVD
Procedure, shortened: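 CHO cells stably expressing the receptor were treated for 30 min with compound ([…], 3-fold, 11 points; 0.3% DMSO) together with 10 μM forskolin. cAMP was measured by chemiluminescent lysate assay. Efficacy was scaled from forskolin alone (0%) to 0.300 μM [Pyr1]-apelin-13 plus forskolin (100%), and dose-response curves were fitted.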

SMILES	EC50
COc1cccc(OC)c1-n1c(-c2ccc(C)o2)nnc1-c1ccccc1C(=O)O [Example 59, 2-[4-(2,6-Dimethoxyphenyl)-5-(5-methylfuran-2-yl)-4H-1,2,4-triazol-3-yl]benzoic acid]	349 nM
COc1cccc(OC)c1-n1c(/C=C/C(=O)N(C)C)nnc1-c1ccc(C)o1 [Example 21, (2E)-3-[4-(2,6-Dimethoxyphenyl)-5-(5-methylfuran-2-yl)-4H-1,2,4-triazol-3-yl]-N,N-dimethylprop-2-enamide]	539 nM
COC(=O)c1ccc(-c2nnc(-c3ccc(C)o3)n2-c2c(OC)cccc2OC)cc1 [Example 47, Methyl 4-[4-(2,6-dimethoxyphenyl)-5-(5-methylfuran-2-yl)-4H-1,2,4-triazol-3-yl]benzoate]	419 nM
COc1cccc(OC)c1-n1c(-c2cccc(C(=O)O)c2)nnc1-c1ccc(C)o1 [Example 46, 3-[4-(2,6-Dimethoxyphenyl)-5-(5-methylfuran-2-yl)-4H-1,2,4-triazol-3-yl]benzoic acid]	96 nM
COc1cccc(OC)c1-n1c(-c2ccc(C(=O)O)cc2)nnc1-c1ccc(C)o1 [Example 48, 4-[4-(2,6-Dimethoxyphenyl)-5-(5-methylfuran-2-yl)-4H-1,2,4-triazol-3-yl]benzoic acid]	22 nM
COc1cccc(OC)c1-n1c(CCC(C)O)nnc1-c1ccc(C)o1 (centres unmarked) [Example 25, 4-[4-(2,6-Dimethoxyphenyl)-5-(5-methylfuran-2-yl)-4H-1,2,4-triazol-3-yl]butan-2-ol]	1720 nM
COC(=O)c1cccc(-c2nnc(-c3ccc(C)o3)n2-c2c(OC)cccc2OC)c1 [Example 45, Methyl 3-[4-(2,6-dimethoxyphenyl)-5-(5-methylfuran-2-yl)-4H-1,2,4-triazol-3-yl]benzoate]	1320 nM

More lines, now with the values ahead:

EC50	SMILES
158 nM	COc1cccc(OC)c1-n1c(SCc2nccs2)nnc1-c1ccc(C)o1 [Example 76, 4-(2,6-Dimethoxyphenyl)-3-(5-methylfuran-2-yl)-5-[(1,3-thiazol-2-ylmethyl)sulfanyl]-4H-1,2,4-triazole]
338 nM	COc1cccc(OC)c1-n1c(CNC(=O)c2ccc(C)cc2)nnc1-c1ccc(C)o1 [Example 99, N-{[4-(2,6-Dimethoxyphenyl)-5-(5-methylfuran-2-yl)-4H-1,2,4-triazol-3-yl]methyl}-4-methylbenzamide]
744 nM	COc1cccc(OC)c1-n1c(OCC(OC)OC)nnc1-c1ccc(C)o1 [Example 87, 3-(2,2-Dimethoxyethoxy)-4-(2,6-dimethoxyphenyl)-5-(5-methylfuran-2-yl)-4H-1,2,4-triazole]
668 nM	COc1cccc(OC)c1-n1c(CNS(=O)(=O)c2ccc(C)cc2)nnc1-c1ccc(C)o1 [Example 107, N-{[4-(2,6-Dimethoxyphenyl)-5-(5-methylfuran-2-yl)-4H-1,2,4-triazol-3-yl]methyl}-4-methylbenzenesulfonamide]

Reference: patent publication US11155525B2 (Sanford Burnham Prebys Medical Discovery Institute, priority 2015, dated 2021)
